As a reminder, the GI50 is the concentration giving 50% growth inhibition. By IC50 is commonly meant the point on the concentration scale where inhibition reaches its midpoint.

Experimental findings from US8865656B2, “Beta-hairpin peptidomimetics having CXCR4 antagonizing activity” (Polyphor AG, priority 2009, dated 2014) are described below.

Read-outs that look alike come from different tables or passages of the source. Starred links: 1 amine or outer side, 2 acyl side, 3 side chain; linkers in the order of their positions; H or OH if unused. Positions of bridges follow the written chain, without caps; N, C: chain ends. Non-standard residues stand in square brackets, D forms with d. Residues, ends and D or L forms follow the SMILES beside them. X1 = O=C(C(O)CCN[*:1])[*:2]; β3hS = N[C@@H](CO)CC(=O)O; Dab = NCC[C@H](N)C(=O)O

The nature of data set [1]: Plasma stability in human plasma. As to conditions: human, plasma. As for the experimental part: (§1) The stability of the peptides in human and mouse plasma was determined by applying the following method: 315 μL/deep well of freshly thawed human plasma (Basler Blutspende-dienst) and mouse plasma (Harlan Sera-Lab, UK), respectively, were spiked with 35 μL/well of compound in PBS (100 μM, triplicate) and incubated at 37° C. […] Following shaking for 2 min the occurred suspensions were filtrated by vacuum and finally, 100 μL of each filtrate were transferred to a propylene microtiter plate, and analyzed by LC/MS as follows: Column: Waters, XBridge C18, mobile phases: (A) water+0.1% formic acid and (B) acetonitrile/water, 95/5 (v/v)+0.1% formic acid, gradient: 5%-100% (B) in 2 minutes, electrospray ionization, MRM detection (triple quadrupole). The peak areas were determined and triplicate values are averaged. The stability is expressed in percent of the initial value at t=0. (tx/to×100). By using the TREND function of EXCEL (Microsoft Office 2003) T1/2 were determined.

Data set [2] in a line: in vitro. It is filed as cell-based. As to the method:
(§2) The cytotoxicity of the depsipeptides to HELA cells (Acc57) and COS-7 cells (CRL-1651) was determined using the MTT reduction assay (T. Mossman, J. Immunol. Meth. 1983, 65, 55-63; M. V. Berridge, A. S. Tan, Arch. Biochem. Biophys. 1993, 303, 474-482). Briefly, the method was as follows: 7000 HELA cells/well and 4500 COS-7 cells/well were seeded and grown in 96-well microtiter plates for 24 h at 37° C. at 5% CO2. Thereafter, time zero (Tz) was determined by MTT reduction (see below). The supernatant of the remaining wells was discarded, and fresh medium and compounds in serial dilutions (12.5, 25 and 50 μM, triplicates) were pipetted into the wells. After incubation of the cells for 48 h at 37° C. at 5% CO2 the supernatant was discarded again and 100 μL MTT reagent (0.5 mg/mL in RPMI1640 and DMEM, respectively)/well was added. Following incubation at 37° C. for 2 h the media were aspirated and the cells were spiked (100 μL isopropanol/well). The absorbance of the solubilized formazan was measured at 595 nm (OD595peptide). For each concentration averages were calculated from triplicates. The percentage of growth was calculated as follows: (OD595peptide-OD595Tz-OD595Empty well)/(OD595Tz-OD595Empty well)×100%. The GI50 (Growth Inhibition) concentrations were calculated for each depsipeptide by using a trend line function for the concentrations (50, 25, 12.5 and 0 μM), the corresponding percentages and the value 50, (=TREND (C50:C0, %50:%0, 50).

Data set [3] can be described thus: Plasma stability in mouse plasma. Particulars: mouse, plasma. As for the experimental part:
as §1

Data set [4] deals with T1, human CXCR4 (Homo sapiens, UniProt P61073).
T1 construct: expressed in transfected cells; host or cells: mouse pre-B cell line 300-19
T1 sequence (P61073 whole entry): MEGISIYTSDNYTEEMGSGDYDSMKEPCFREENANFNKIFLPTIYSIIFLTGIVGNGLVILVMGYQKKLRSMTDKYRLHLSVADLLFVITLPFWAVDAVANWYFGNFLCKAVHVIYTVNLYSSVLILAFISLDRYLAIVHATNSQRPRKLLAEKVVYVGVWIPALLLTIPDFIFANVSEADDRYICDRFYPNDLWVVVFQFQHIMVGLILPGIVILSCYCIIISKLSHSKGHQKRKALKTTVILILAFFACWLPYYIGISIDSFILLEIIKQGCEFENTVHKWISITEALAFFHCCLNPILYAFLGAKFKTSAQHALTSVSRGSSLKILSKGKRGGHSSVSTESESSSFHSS
Briefly: Ca2+-assay: CXCR4-antagonizing activity (SDF-1 induced calcium mobilization). Type of data set: cell-based. As to conditions: mouse pre-B cell line 300-19 stably transfected with human CXCR4, read-out: IC50% [nM] ± SD, CXCR4 receptor. An excerpt:
2.3. Ca^2+-Assay: CXCR4-Antagonizing Activity of the Peptides
Increases in intracellular calcium were monitored using a Flexstation 384 (Molecular Devices, Sunnyvale, Calif.) to assay the depsipeptides for CXCR4 antagonism in a mouse pre-B cell line 300-19 stably transfected with human CXCR4 (E. Oberlin, A. Amara, F. Bachelerie, C. Bessia, J.-L. Virelizier, F. Arenzana-Seisdedos, O. Schwartz, J.-M. Heard, I. Clark-Lewis, D. F. Legler, M. Loetscher, M. Baggiolini, B. Moser, Nature 1996, 382, 833-835; M. Loetscher, T. Geiser, T. O'Reilly, R. Zwalen, M. Baggiolini, B. Moser, J. Biol. Chem. 1994, 269, 232-237; M. D'Apuuo, A. Rolink, M. Loetscher, J. A. Hoxie, I. Clark-Lewis, F. Melchors, M. Baggiolini, B. Moser, Eur. J. Immunol. 1997, 27, 1788-1793). The cells were batch loaded with the Calcium 4 Assay kit (Molecular Devices) in assay buffer (Hanks Balanced salt solution [HBSS], 20 mM HEPES, pH 7.4, 0.1% BSA) for 1 h at room temperature and labeled cells were dispensed into black 96 well assays plates (Costar No. 3603). Calcium mobilization induced by stromal-derived factor-1 (SDF-1) was measured in the Flexstation 384 (excitation: 485 nm; emission: 525 nm) for 90 seconds. Antagonist activity of peptides was determined by spiking the cells with compounds prior to SDF-1 addition. Dose response curves (compound concentration versus % maximum response for SDF-1) were determined for each antagonist and IC50 values were calculated by fitting the data to a four parameter logistic equation using SoftmaxPro 4.8 (Molecular Devices).

For data set [5], the system named is human red blood cells (hRBC). Particulars: red cells of human, 1 h. As for the experimental part:
The peptides were tested for their hemolytic activity against human red blood cells (hRBC). Fresh hRBC were washed three times with phosphate buffered saline (PBS) and centrifuged for 10 min at 2000×g. Compounds (100 μM) were incubated with 20% hRBC (v/v) for 1 h at 37° C. The final erythrocyte concentration was approximately 0.9×10^9 cells/mL. A value of 0% and 100% cell lyses, respectively, was determined by incubation of hRBC in the presence of PBS alone and 0.1% Triton X-100 in H2O, respectively. The samples were centrifuged, the supernatants were 20-fold diluted in PBS buffer and the optical densities (OD) were measured at 540 nm.
Percent hemolysis was calculated as follows: (OD540peptide/OD540H2O)×100%.

Data set [6] can be described thus: in vitro. It is filed as cell-based. As to the method: as §2
The source holds these as a separate data set.

Turning to `C[C@@H]1NC(=O)[C@H](Cc2c[nH]cn2)NC(=O)[C@H](Cc2ccc(O)cc2)NC(=O)[C@@H]2CCCN2C(=O)[C@H]2CCCN2C(=O)[C@H](CCCCN)NC(=O)[C@H](CCC(N)=O)NC(=O)[C@H](Cc2ccc(O)cc2)NC(=O)[C@@H]2CSSC[C@H](NC1=O)C(=O)NCCC(O)C(=O)N[C@@H](C)C(=O)N1CCC[C@@H]1C(=O)N[C@@H](CCN)C(=O)N[C@@H](CCCNC(=N)N)C(=O)N[C@@H](Cc1ccc(O)cc1)C(=O)N2` (stereo partly drawn) [compound 19] (cyclo(YHAC[X1]A[dP][Dab]RYCYQK[dP]P); disulfide 4-11), the “Plasmastability human pl. T1/2” value in data set [1] was 4 h. For the same compound, the GI50 in data set [2] and in data set [6] was over 50 µM each time. Further, the “Plasmastability mouse pl. T1/2” value in data set [3] was found to be 4 h. The concentration for half-maximal inhibition (IC50) in data set [4] was determined as 1.1 ± 0.6 nM. Further, the “Hemolysis at 100 μM” value in data set [5] is on record as 1.8%.

With `C[C@@H]1NC(=O)[C@H](Cc2c[nH]cn2)NC(=O)[C@H](Cc2ccc(O)cc2)NC(=O)[C@@H]2CCCN2C(=O)[C@H]2CCCN2C(=O)[C@H](CCCCN)NC(=O)[C@H](CCC(N)=O)NC(=O)[C@H](Cc2ccc(O)cc2)NC(=O)[C@@H]2CSSC[C@H](NC1=O)C(=O)N[C@@H](CO)CC(=O)N[C@@H](C)C(=O)N1CCC[C@@H]1C(=O)N[C@@H](CCN)C(=O)N[C@@H](CCCNC(=N)N)C(=O)N[C@@H](Cc1ccc(O)cc1)C(=O)N2` [compound 20] (cyclo(YHAC[β3hS]A[dP][Dab]RYCYQK[dP]P); disulfide 4-11), the “Plasmastability human pl. T1/2” value in data set [1] (10 μM) was found to be 4 h. Besides, the GI50 in data set [2] (human) and in data set [6] (African green monkey) was over 50 µM in each case. The “Plasmastability mouse pl. T1/2” value in data set [3] (10 μM) amounted to 4 h. The IC50 in data set [4] was 2.66 ± 2.2 nM. Further, in data set [5], the “Hemolysis at 100 μM” value amounted to 0.6%.
